Measured values published in paper PMC10303900, “Discovery of a New Chalcone-Trimethoxycinnamide Hybrid with Antimitotic Effect: Design, Synthesis, and Structure—Activity Relationship Studies” (Pharmaceuticals, 2023).
Read-outs that look alike come from different tables or passages of the source.

Tests used:
[1] = test system: HPAEpiC; parameters: method as in Novais et al. [17]; details: 48 h, non-tumor cells; ref Novais et al. [17]; cited from earlier work
[2] = test system: A375-C5; parameters: method as in Novais et al. [17]; details: 48 h; ref Novais et al. [17]; cited from earlier work
[3] = parameters: method as in PMID 34885726; details: used at 2×GI50; ref [17]; cited from earlier work
[4] = test system: HFF-1 and HPAEpiC cells; parameters: method as in PMID 34170069, PMID 34885726; details: fibroblasts HFF-1 and HPAEpiC; ref [12],[17]; cited from earlier work
[5] = test system: HCT116 (HCT116 p53+/+); details: 48 h, cited from earlier work
[6] = test system: MCF-7; details: 48 h, cited from earlier work
[7] = test system: A375-C5; test: Sulforhodamine B (SRB) growth inhibition assay, melanoma cells; type: cell-based; details: Homo sapiens, 48 h
Procedure: (§1) A sulforhodamine B (SRB) assay was performed to evaluate the in vitro growth inhibitory activity of all synthesized hybrids, as well as intermediates in the human tumor cell lines of melanoma (A375-C5), breast adenocarcinoma (MCF-7), and colorectal carcinoma (HCT116), as well as on the non-tumor Human Pulmonary Alveolar Epithelial cell line (HPAEpiC). The concentration inducing 50% cell growth inhibition (GI50), was calculated. […] The overall results prompt us to further investigate the mechanism behind the cytotoxic activities of compounds 6, 7, and 13 in colorectal tumor cells. Moreover, in silico studies were performed, aiming to screen for drug-likeness.
(§2) A375-C5 (melanoma) and MCF-7 (breast adenocarcinoma) cell lines were obtained from the European Collection of Cell Culture, UK, and were grown in RPMI-1640 medium (Roswell Park Memorial Institute, Biochrom, Cambridge, UK) with 5% inactivated FBS (fetal bovine serum, Biochrom). HCT-116 (colon adenocarcinoma) cells were grown in DMEM medium (Dulbecco’s Modified Eagle’s, Biochrom) with 5% inactivated FBS. The non-tumor human pulmonary alveolar epithelial cells (HPAEpiC) were obtained from ScienCell Research Laboratories and grown in DMEM medium supplemented with 10% FBS and 1% non-essential amino acids (Sigma-Aldrich Co., Saint Louis, MO, USA). All cell lines were maintained in a humidified incubator (Hera Cell, Heraeus, Hanau, Germany) at 37 °C and with 5% CO2, and cell viability was regularly monitored using the exclusion trypan blue dye.
(§3) A total of 5.0 × 10^4 A375-C5, MCF-7, and HCT-116 cells, or 6.0 × 10^4 HPAEpiC cells were seeded in 96-well plates and incubated at 37 °C and 5% CO2 to allow for cell attachment. After 24 h, cells were treated with two-fold serial dilutions of test compounds (0–150 µM), or with DMSO as the compound solvent. In parallel, cells in a time-zero (T0) plate, without treatment, were fixed with 50% (m/v) trichloroacetic acid (TCA, Merck Millipore, Darmstadt, Germany), for 1 h at 4 °C, and then washed with distilled water and left to dry. Forty-eight hours after compound treatment, cells were fixed with 50% TCA and stained with SRB (Sigma-Aldrich Co., Ltd., Gillingham, UK) for 30 min at room temperature, followed by 5 rounds of washing with 1% (v/v) acetic acid (Merck Milli-pore, Darmstadt, Germany). SRB–protein complexes were then solubilized with […] Tris buffer (Sigma-Aldrich Co., Ltd., Gillingham, UK) for 30 min, and the absorbance was measured at 515 nm in a microplate reader (Biotek Synergy 2, BioTek Instruments, Inc., Winooski, VT, USA). A dose-response curve was obtained for each cell line, and the concentration that caused 50% cell growth inhibition (GI50) was calculated.

[8] = test system: HCT116 p53−/−; test: SRB growth inhibition assay, p53 knocked-out colorectal cells; type: cell-based, human
Procedure: as §3

[9] = test system: HPAEpiC; test: SRB growth inhibition assay, non-tumor pulmonary alveolar epithelial cells; type: cell-based; details: Homo sapiens, Epithelial cell, 48 h
Procedure: as §1, §2, §3

[10] = target: T1, p53–MDM2 interaction (Homo sapiens, UniProt Q00987); parameters: method as in doi:10.1016/j.arabjc.2016.04.015; details: ref [16]; cited from earlier work
T1 construct: expressed in transfected cells; host or cells: Saccharomyces cerevisiae strain CG379

[11] = target: T1, p53–MDM2 interaction; test: Yeast targeted screening assay of p53–MDM2 interaction; details: 10 μM, yeast cell-based assay, data not shown
Procedure: However, since CM-M345 (1) has been previously reported as a p53-MDM2 inhibitor by our research group, the effect of 10 μM of compounds 6, 7, and 13 on the p53–MDM2 interaction was analyzed using yeast cell-based assays.
Saccharomyces cerevisiae (strain CG379) expressing human wt p53 alone and combined with human MDM2 were obtained in previous works. For the expression of human proteins (routinely grown in minimal selective medium), cells were diluted to 0.05 OD600 in selective induction medium containing 2% (w/w) galactose, 1% (w/w) raffinose, 0.7% (w/w) yeast nitrogen base without amino acids from Difco (Quilaban, Sintra, Portugal), and all the amino acids required for yeast growth ([…]) except leucine and tryptophan. Yeast cells were incubated at 30 °C under continuous orbital shaking (200 rpm) with 10 µM compounds or 0.1% DMSO only, for approximately 42 h (time required by the control yeast, co-transformed with the empty vectors and incubated with DMSO only, to achieve 0.4 OD600). Yeast growth was analyzed by counting the number of colony-forming units (CFU) after 2 days of incubation at 30 °C on Sabouraud Dextrose Agar from Liofilchem (Frilabo, Porto, Portugal).

[12] = test system: A375-C5, MCF-7 and HCT116 cell lines; test: SRB growth inhibition, range over the tumor cell lines of Table 1; type: cell-based; details: Homo sapiens; SAR discussion, values of Table 1
Procedure: Considering the antiproliferative effects on tumor cells of all the studied compounds (Table 1), some SAR considerations may be undertaken (Figure 2). […] Nevertheless, this effect is not observed for the flavone derivatives 15 and 16. […] Additionally, with the screening of the synthetic intermediates, some conclusions can also be inferred (Figure 2).
as §3

[13] = test system: MCF-7; test: SRB growth inhibition assay, breast adenocarcinoma cells; type: cell-based; details: Homo sapiens, MCF7, 48 h
Procedure: as §1, §2, §3

[14] = test system: HCT116 cells; test: Apoptosis detection via flow cytometry (Annexin V-FITC/PI); type: cell-based, human; details: HCT116, 48 h, vs untreated or DMSO
Procedure: Double labeling with annexin V-FITC and propidium iodide dyes was used to detect cells going through apoptotic events, using a flow cytometer in order to obtain insights into the mechanism by which compounds 6, 7, and 13 generate antiproliferative activity against colorectal carcinoma cells. For that, HCT116 cells were exposed to each compound for 48 h.
To evaluate apoptotic cell death, the “Annexin V-FITC Apoptosis Detection Kit” (eBioscience, Vienna, Austria) was used according to the manufacturer’s instructions. Briefly, 1.2 × 10^5 cells/well were seeded into 6-well plates, and 24 h later, cells were treated with compounds 6, 7, and 13. After 48 h, floating and adherent cells were collected, pelleted via centrifugation (1000 rpm, 5 min), and suspended in binding buffer. Annexin V-FITC was added and incubated for 10 min, protected from light. Cells were washed and resuspended in binding buffer, and 20 μg/mL of propidium iodide (PI) was added. Fluorescence was assessed using the BD Accuri™ C6 Plus flow cytometer (BD Biosciences, Qume Drive, San Jose, CA, USA), and the data were analyzed with the BD Accuri TM C6 Plus software (version 1.0.27.1, San Jose, CA, USA). At least 20,000 events per sample were collected.

[15] = test system: HCT116 cells; test: Mitotic arrest / mitotic index by phase-contrast microscopy; type: cell-based, human; details: HCT116, 24 h, phase contrast microscopy
Procedure: Disruption of cell cycle progression is considered one of the most common cytotoxic mechanisms of anticancer drugs. Moreover, the antimitotic effect of BP-M345 (2) has been previously reported. Therefore, compounds 6, 7, and 13 were tested for their capability to induce cell cycle arrest. HCT116 cells were exposed for 24 h to the compounds and then analyzed using phase contrast microscopy for morphological changes. Untreated and dimethyl sulfoxide (DMSO; solvent)-treated cells were used as negative controls. Cell exposure to nocodazole, an antimitotic agent, was used as a positive control. […] We thus calculated the mitotic index (MI), and observed a significant increase in MI in 7-treated cells (22.76 ± 4.30%) compared to the untreated (12.68 ± 1.98%) or DMSO-treated (12.81 ± 1.45%) (Figure 4c).
A total of 1.2 × 10^5 HCT-116 cells were grown in six-well dishes and treated for 24 h with 3.26 µM of compound 7. Cells treated with 1 µM nocodazole were used as a positive control for antimitotic activity. Untreated cells and cells treated with DMSO were included to exclude the cytotoxicity of the compound solvent. Mitotic index, and the percentage of mitotic cells over the total cell population were determined via cell-rounding under phase-contrast microscopy from at least ten random microscope fields.
For phase contrast microscopy images, a Nikon TE 2000-U microscope (Nikon, Amsterdam, The Netherlands) with a 10× objective was used, coupled to a DXM1200F digital camera with Nikon ACT-1 software (Melville, NY, USA). For fluorescence images, an Axio Observer Z.1 SD microscope (Carl Zeiss, Germany) was used, coupled to an AxioCam MR3, with the Plan Apochromatic 63×/NA 1.4 objective. The images were processed using ImageJ, version 1.51.

[16] = test system: HCT116 (HCT116 p53+/+); test: SRB growth inhibition assay, colorectal carcinoma cells; type: cell-based; details: Homo sapiens, HCT-116
Procedure: as §1, §2, §3

T1 sequence (Q00987 whole entry): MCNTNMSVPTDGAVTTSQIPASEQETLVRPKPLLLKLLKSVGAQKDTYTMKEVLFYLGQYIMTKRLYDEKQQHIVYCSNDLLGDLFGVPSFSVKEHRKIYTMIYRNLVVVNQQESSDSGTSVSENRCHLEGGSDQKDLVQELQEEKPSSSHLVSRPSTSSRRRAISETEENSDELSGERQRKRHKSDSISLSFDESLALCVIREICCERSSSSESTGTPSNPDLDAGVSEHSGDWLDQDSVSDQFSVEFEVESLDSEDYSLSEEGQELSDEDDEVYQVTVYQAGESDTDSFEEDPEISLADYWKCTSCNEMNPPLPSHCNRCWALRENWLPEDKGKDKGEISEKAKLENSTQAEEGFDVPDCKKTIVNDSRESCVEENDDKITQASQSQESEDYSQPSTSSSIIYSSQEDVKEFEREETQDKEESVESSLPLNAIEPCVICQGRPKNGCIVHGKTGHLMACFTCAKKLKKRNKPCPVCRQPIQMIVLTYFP

GI50 [7] [nM] | SI, selective index (GI50 of HCT116 p53−/−/GI50 of HCT116 p53+/+) [8] | GI50 ([8]; Homo sapiens, HCT-116, Table 2, 48 h) [nM] | GI50 [12] [nM] | GI50 [13] [nM] | GI50 ([16]; SRB, 48 h, read-out: GI50 HCT116) [nM] | GI50 ([16]; Table 2, 48 h, read-out: GI50 HCT116 p53+/+) [nM] | Structure (SMILES) | GI50 [1] [nM] | GI50 [2] [nM] | Mitotic index (MI) [3] [%] | Cytotoxicity in non-tumor cell lines [4] | GI50 ([5]; ref Moreira et al. [12]) [nM] | GI50 ([6]; ref Novais et al. [17]) [nM] | GI50 [9] [nM] | Inhibition of the p53–MDM2 interaction in yeast-based assays [10] | GI50 ([5]; ref Pereira et al. [16]) [nM] | GI50 ([6]; ref Pereira et al. [16]) [nM] | Effect on the p53–MDM2 interaction (reversal of the negative growth effect of MDM2 on p53) [11] | Apoptosis induction (Annexin V-positive cells) [14] | Accumulation of bright and rounded (mitotic) cells [15]
– | – | – | – | – | – | – | COc1cc(/C=C2\COC/C(=C\c3cc(OC)c(OC)c(OC)c3)C2=O)cc(OC)c1OC [BP-M345 (2)] | 1070 ± 160 | 240 ± 10 | 29.8 ± 5.6 | low cytotoxicity | 170 ± 10 | 450 ± 60 | – | – | – | – | – | – | –
5570 ± 60 | 1.31 | – | – | – | – | – | CCCc1c(OC)ccc(C(=O)/C=C/c2cc(OC)c(OC)c(OC)c2)c1O [CM-M345 (1), reference compound] | – | – | – | – | – | – | 6100 ± 660 | inhibitor of the interaction | 2600 ± 200 | 2300 ± 100 | – | – | –
3610 ± 1110 | 0.68 | 1900 ± 300 | 2810 to 39800 | 39800 ± 2110 | 2810 ± 650 | 2810 ± 650 | CCCc1c(OCCNC(=O)OC(C)(C)C)ccc(C(=O)/C=C/c2cc(OC)c(OC)c(OC)c2)c1O [Compound 6, tert-butyl(E)-(2-(3-hydroxy-2-propyl-4-(3-(3,4,5-trimethoxyphenyl)acryloyl)phenoxy)ethyl)carbamate] | – | – | – | – | – | – | 9600 ± 940 | – | – | – | none of the tested compounds significantly reversed the negative inhibitory growth effect of MDM2 on p53 | induces apoptotic tumor cell death | not observed
